The results in this text go back to ChEMBL document CHEMBL3351927, “Pyrrole alkaloids from the fruits of Morus alba” (Bioorg Med Chem Lett, 2014).

Broadly, the inhibition is the share of the control response that was lost under treatment.

This assay addresses T1, Pancreatic triacylglycerol lipase (Sus scrofa) (UniProt P00591).
T1 sequence (whole entry): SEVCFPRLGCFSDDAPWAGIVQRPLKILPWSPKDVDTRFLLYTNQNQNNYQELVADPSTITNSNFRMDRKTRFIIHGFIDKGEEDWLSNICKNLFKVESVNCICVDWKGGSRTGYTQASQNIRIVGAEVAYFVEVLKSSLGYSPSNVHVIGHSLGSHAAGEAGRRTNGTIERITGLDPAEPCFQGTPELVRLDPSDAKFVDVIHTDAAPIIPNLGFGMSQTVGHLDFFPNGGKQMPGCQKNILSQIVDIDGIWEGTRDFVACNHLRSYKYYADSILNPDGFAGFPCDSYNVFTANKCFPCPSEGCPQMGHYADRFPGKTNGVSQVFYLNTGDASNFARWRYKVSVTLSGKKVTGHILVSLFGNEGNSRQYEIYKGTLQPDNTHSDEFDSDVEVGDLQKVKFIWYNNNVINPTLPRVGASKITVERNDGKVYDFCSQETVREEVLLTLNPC
Briefly: Inhibition of porcine pancreatic lipase assessed as p-NPB substrate hydrolysis at 100 uM after 15 mins by microplate reader.

Structures are written as SMILES.

As to `COCc1ccc(C=O)n1C(C)C(=O)OC` (configuration not stated), the inhibition is 40%. Regarding `O=Cc1ccc2n1C(Cc1ccc(O)cc1)C(=O)OC2` (configuration not stated), the inhibition stood at 70%.
